Experiments:
Squalene monooxygenase = Squalene monooxygenase (Homo sapiens, UniProt Q14534); test: Inhibitory activity against Squalene Epoxidase in pig liver; NI-No inhibitory effect at 400 uM; set-up: species or system Sus scrofa; conditions: target entry is the homologue from another species
Lanosterol synthase = biological target: T1, Lanosterol synthase (Rattus norvegicus, UniProt P48450); test: Inhibitory activity against Oxidosqualene-lanosterol cyclase in pig liver; NI-No inhibitory effect at 400 uM; set-up: species or system Sus scrofa; conditions: target entry is the homologue from another species
T1 sequence (P48450 whole entry): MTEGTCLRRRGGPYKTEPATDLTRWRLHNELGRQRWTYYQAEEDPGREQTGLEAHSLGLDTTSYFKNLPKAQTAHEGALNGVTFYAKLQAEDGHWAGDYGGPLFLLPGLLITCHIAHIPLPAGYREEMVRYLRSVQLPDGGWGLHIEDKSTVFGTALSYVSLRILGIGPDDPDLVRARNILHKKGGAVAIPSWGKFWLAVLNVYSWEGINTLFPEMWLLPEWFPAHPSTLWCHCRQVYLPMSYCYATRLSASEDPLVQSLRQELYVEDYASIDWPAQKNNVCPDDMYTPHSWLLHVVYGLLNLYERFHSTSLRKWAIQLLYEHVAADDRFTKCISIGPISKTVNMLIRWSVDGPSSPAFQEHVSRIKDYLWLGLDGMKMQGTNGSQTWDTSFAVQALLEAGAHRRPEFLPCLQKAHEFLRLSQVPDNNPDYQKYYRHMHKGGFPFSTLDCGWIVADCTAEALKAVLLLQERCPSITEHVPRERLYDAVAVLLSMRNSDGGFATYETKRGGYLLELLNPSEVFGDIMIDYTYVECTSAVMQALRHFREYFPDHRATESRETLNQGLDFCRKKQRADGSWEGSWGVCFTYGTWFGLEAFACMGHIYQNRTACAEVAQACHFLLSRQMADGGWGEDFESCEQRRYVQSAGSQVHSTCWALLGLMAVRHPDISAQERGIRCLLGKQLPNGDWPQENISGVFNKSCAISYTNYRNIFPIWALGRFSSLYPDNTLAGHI

Sequence of Squalene monooxygenase (Q14534 whole entry): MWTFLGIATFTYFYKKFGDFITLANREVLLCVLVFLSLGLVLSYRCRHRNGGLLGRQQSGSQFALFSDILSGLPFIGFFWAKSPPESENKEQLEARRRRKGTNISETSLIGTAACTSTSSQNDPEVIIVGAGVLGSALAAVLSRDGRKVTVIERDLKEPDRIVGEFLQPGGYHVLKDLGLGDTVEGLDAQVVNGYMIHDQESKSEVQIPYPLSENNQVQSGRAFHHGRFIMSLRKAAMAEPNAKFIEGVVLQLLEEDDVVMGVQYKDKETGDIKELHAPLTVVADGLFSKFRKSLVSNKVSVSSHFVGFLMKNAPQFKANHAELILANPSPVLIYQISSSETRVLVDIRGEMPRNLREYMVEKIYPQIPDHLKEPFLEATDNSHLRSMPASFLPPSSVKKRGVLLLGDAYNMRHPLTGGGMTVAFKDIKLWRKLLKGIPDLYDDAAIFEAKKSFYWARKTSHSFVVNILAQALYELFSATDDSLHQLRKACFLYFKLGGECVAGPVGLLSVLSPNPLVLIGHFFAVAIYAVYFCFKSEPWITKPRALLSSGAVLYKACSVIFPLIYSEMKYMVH

IC50 (Squalene monooxygenase) | IC50 (Lanosterol synthase) | SMILES
No inhibition | – | C#CCC/C(C)=C/CC/C(C)=C/CC/C=C(\C)CC/C=C(\C)CCC=C(C)C
No inhibition | No inhibition | C=C=CCC/C(C)=C/CC/C(C)=C/CC/C=C(\C)CC/C=C(\C)CCC=C(C)C

From ChEMBL document CHEMBL1124698, “Squalene analogues containing isopropylidene mimics as potential inhibitors of pig liver squalene epoxidase and oxidosqualene cyclase” (J Med Chem, 1989)
